Laboratory results published in patent US10174053B2, “2 substituted cephem compounds” (Glaxo Group Limited, priority 2012, dated 2019).
In brackets after ≈: the same amount, converted by molar mass. Like-named read-outs stand apart in the source and are kept apart here.

Tests used:
Assay in all cases: In vitro antimicrobial activity, MIC by broth microdilution (CLSI)
Type in all cases: cell-based
K. pneumoniae SR01358 = details: for MIC: Klebsiella pneumoniae
Description: (§1) Compound (I) of the invention was evaluated for in vitro antimicrobial activity thereof.
(§2) Measurement of Minimum Inhibitory Concentration (MIC: μg/mL) was conducted according to CLSI (Clinical and Laboratory Standards Institute) method, and the amount of bacteria for inoculation was 5×10^5 cfu/mL, and cation-adjusted Iso-Sensitest broth containing human Apo-transferrin was used as a test medium, and the experiment was conducted using broth microdilution method. The bacteria used are listed below.

E. Coli JMI1890 = details: for MIC: Escherichia coli, read-out: Minimum Inhibitory Concentration (MIC) E. Coli JMI:1890
Description: as §1, §2

A. baumannii JMI7 = details: for MIC: Acinetobacter baumannii
Description: as §1, §2

A. baumannii JMI2346 = details: for MIC: Acinetobacter baumannii
Description: as §1, §2

[1] = SR01358, KPC-2, ESBL and KPC-type carbapenemase producing strain, 5×10^5 cfu/mL, cation-adjusted Iso-Sensitest broth containing human Apo-transferrin, read-out: Minimum Inhibitory Concentration (MIC) K. pneumoniae SR01358
[2] = PER-1, TEM-1, ESBL producing strain, 5×10^5 cfu/mL, cation-adjusted Iso-Sensitest broth containing human Apo-transferrin
[3] = JMI7, PER-1, OXA-23, 51, ESBL and OXA-type carbapenemase producing strain, 5×10^5 cfu/mL, cation-adjusted Iso-Sensitest broth containing human Apo-transferrin, read-out: Minimum Inhibitory Concentration (MIC) A. baumannii JMI:7
[4] = JMI2346, OXA-51, TEM, ESBL and OXA-type carbapenemase producing strain, 5×10^5 cfu/mL, cation-adjusted Iso-Sensitest broth containing human Apo-transferrin, read-out: Minimum Inhibitory Concentration (MIC) A. baumannii JMI:2346

Row | Compound | MIC (K. pneumoniae SR01358; [1]) | MIC (E. Coli JMI1890; [2]) | MIC (A. baumannii JMI7; [3]) | MIC (A. baumannii JMI2346; [4]) | further results
1 | C[C@@H]1S[C@@H]2[C@H](NC(=O)/C(=N\O[C@@H](CC(=O)[O-])C(=O)[O-])c3csc(N)n3)C(=O)N2C(C(=O)[O-])=C1C[N@+]12CCC[C@H]1CN(C(=O)C(=O)c1cc(O)c(O)c(Cl)c1)CC2.[Na+].[Na+] [Compound I-11] | 0.063 µg/mL | 2 µg/mL | 2 µg/mL | 16 µg/mL | 
2 | C[C@@H]1S[C@@H]2[C@H](NC(=O)/C(=N\OC(C)(C)C(=O)O)c3csc(N)n3)C(=O)N2C(C(=O)[O-])=C1C[N+]12CCC(CC1)N(C(=O)c1cn(C)c3cc(O)c(O)c(Cl)c3c1=O)CC2 [Compound I-160, (4S,6R,7R)-7-((Z)-2-(2-aminothiazol-4-yl)-2-(((2-carboxypropan-2-yl)oxy)imino)acetamido)-3-((4-(5-chloro-6,7-dihydroxy-1-methyl-4-oxo-1,4-dihydroquinoline-3-carbonyl)-1,4-diazabicyclo[3.2.2]nonan-1-ium-1-yl)methyl)-4-methyl-8-oxo-5-thia-1-azabicyclo[4.2.0]oct-2-ene-2-carboxylate] | 0.063 µg/mL (≈ 0.0733 µM) | ≤ 0.031 µg/mL | 0.25 µg/mL (≈ 0.291 µM) | 0.5 µg/mL (≈ 0.582 µM) | 
3 | C[C@@H]1S[C@@H]2[C@H](NC(=O)/C(=N\OC(C)(C)C(=O)[O-])c3csc(N)n3)C(=O)N2C(C(=O)O)=C1C[N+]12CCC(CNC(=O)c3cc(O)c(O)c(Cl)c3)(CC1)C2 [Compound I-142] | ≤ 0.031 µg/mL | 0.25 µg/mL (≈ 0.321 µM) | 0.5 µg/mL (≈ 0.642 µM) | 2 µg/mL (≈ 2.57 µM) | 
4 | C[C@@H]1S[C@@H]2[C@H](NC(=O)/C(=N\OC(C)(C)C(=O)[O-])c3csc(N)n3)C(=O)N2C(C(=O)O)=C1C[N+]12CCC(CNN3C(=O)c4cc(O)c(O)cc4C3=O)(CC1)CC2 [Compound I-123] | ≤ 0.031 µg/mL | 0.125 µg/mL (≈ 0.156 µM) | 0.5 µg/mL (≈ 0.626 µM) | 4 µg/mL (≈ 5.01 µM) | 
5 | C[C@@H]1S[C@@H]2[C@H](NC(=O)/C(=N\OC(C)(C)C(=O)[O-])c3csc(N)n3)C(=O)N2C(C(=O)O)=C1C[N+]12CCC(CNC(=O)c3ccc(O)c(O)c3Cl)(CC1)C2 [Compound I-100] | 0.063 µg/mL (≈ 0.0809 µM) | 0.125 µg/mL (≈ 0.161 µM) | 0.5 µg/mL (≈ 0.642 µM) | 1 µg/mL (≈ 1.28 µM) | 
6 | C[C@@H]1S[C@@H]2[C@H](NC(=O)/C(=N\OC(C)(C)C(=O)[O-])c3csc(N)n3)C(=O)N2C(C(=O)[O-])=C1C[N+]12CCC(CC1)N(C(=O)c1c[nH]c3cc(O)c(O)c(Cl)c3c1=O)CC2.[Na+] [Compound I-177, (4S,6R,7R)-7-((Z)-2-(2-aminothiazol-4-yl)-2-(((2-carboxypropan-2-yl)oxy)imino)acetamido)-3-((4-(5-chloro-6,7-dihydroxy-4-oxo-1,4-dihydroquinoline-3-carbonyl)-1,4-diazabicyclo[3.2.2]nonan-1-ium-1-yl)methyl)-4-methyl-8-oxo-5-thia-1-azabicyclo [4.2.0]oct-2-ene-2-carboxylate, Sodium salt] | ≤ 0.031 µg/mL | 0.063 µg/mL | 0.25 µg/mL | 0.5 µg/mL | 
7 | CO/N=C(\C(=O)NCC12CC[N+](CC3=C(COO)N4C(=O)[C@@H](NC(=O)/C(=N\OC(C)(C)C(=O)[O-])c5csc(N)n5)[C@H]4S[C@H]3C)(CC1)CC2)c1cc(O)c(O)c(F)c1 [Compound I-132] |  |  |  |  | Minimum Inhibitory Concentration (MIC) K. pneumoniae SR01358 (K. pneumoniae SR01358; KPC-2, ESBL and KPC-type carbapenemase producing strain, 5×10^5 cfu/mL, cation-adjusted Iso-Sensitest broth containing human Apo-transferrin): ≤0.031 µg/mL; Minimum Inhibitory Concentration (MIC) E. Coli JMI:1890 (E. Coli JMI1890; [2]): 0.25 µg/mL; Minimum Inhibitory Concentration (MIC) A. baumannii JMI:7 (A. baumannii JMI7; PER-1, OXA-23, 51, ESBL and OXA-type carbapenemase producing strain, 5×10^5 cfu/mL, cation-adjusted Iso-Sensitest broth containing human Apo-transferrin): 1 µg/mL; Minimum Inhibitory Concentration (MIC) A. baumannii JMI:2346 (A. baumannii JMI2346; OXA-51, TEM, ESBL and OXA-type carbapenemase producing strain, 5×10^5 cfu/mL, cation-adjusted Iso-Sensitest broth containing human Apo-transferrin): 4 µg/mL
8 | C[C@@H]1S[C@@H]2[C@H](NC(=O)/C(=N\OC(C)(C)C(=O)[O-])c3csc(N)n3)C(=O)N2C(C(=O)O)=C1C[N+]1(CCNC(=O)c2cc(=O)c(O)c[nH]2)CCCC1 [Compound I-130] | ≤ 0.031 µg/mL | 8 µg/mL (≈ 10.9 µM) |  |  | 
9 | C[C@@H]1S[C@@H]2[C@H](NC(=O)/C(=N\OC(C)(C)C(=O)[O-])c3csc(N)n3)C(=O)N2C(C(=O)[O-])=C1C[N+]1(C)[C@@H]2CC[C@H]1C[C@@H](NC(=O)c1cc(O)c(O)c(Cl)c1)C2.[Na+] (some centres unmarked) [Compound I-66] | ≤ 0.031 µg/mL | 0.063 µg/mL | 0.25 µg/mL | 1 µg/mL | 
10 | C[C@@H]1S[C@@H]2[C@H](NC(=O)/C(=N\OC(C)(C)C(=O)[O-])c3csc(N)n3)C(=O)N2C(C(=O)[O-])=C1C[N+]1(CCn2[nH]c(=O)c3cc(O)c(O)cc3c2=O)CCCC1.[Na+] [Compound I-4] | ≤ 0.031 µg/mL | 2 µg/mL | 1 µg/mL |  | 
11 | C[C@@H]1S[C@@H]2[C@H](NC(=O)/C(=N\OC(C)(C)C(=O)[O-])c3csc(N)n3)C(=O)N2C(C(=O)O)=C1C[N+]1(CCN2C(=O)c3ccc(O)c(O)c3C2=O)CCCC1 [Compound I-51] | 0.125 µg/mL (≈ 0.165 µM) | 0.5 µg/mL (≈ 0.66 µM) | 2 µg/mL (≈ 2.64 µM) | 8 µg/mL (≈ 10.6 µM) | 
12 | C[C@@H]1S[C@@H]2[C@H](NC(=O)/C(=N\OC(C)(C)C(=O)[O-])c3csc(N)n3)C(=O)N2C(C(=O)[O-])=C1C[N@+]1(C)[C@@H]2CC[C@H]1C[C@@H](NC(=O)C(=O)c1cc(O)c(O)c(F)c1)C2.[Na+] [Compound I-83] | ≤ 0.031 µg/mL | 0.063 µg/mL | 0.5 µg/mL | 2 µg/mL | 
13 | C[C@@H]1S[C@@H]2[C@H](NC(=O)/C(=N\OC(C)(C)C(=O)[O-])c3csc(N)n3)C(=O)N2C(C(=O)O)=C1C[N@+]1(C)[C@@H]2CC[C@H]1C[C@@H](N1C(=O)c3ccc(O)c(O)c3C1=O)C2 [Compound I-38] |  |  |  |  | MIC (K. pneumoniae SR01358; SR01358, read-out: Minimum Inhibitory Concentration (MIC) K. pneumoniae SR01358): 0.063 µg/mL (≈ 0.0804 µM); MIC (E. Coli JMI1890): 0.25 µg/mL (≈ 0.319 µM); MIC (A. baumannii JMI7; JMI7, read-out: Minimum Inhibitory Concentration (MIC) A. baumannii JMI:7): 0.25 µg/mL (≈ 0.319 µM); MIC (A. baumannii JMI2346; JMI2346, read-out: Minimum Inhibitory Concentration (MIC) A. baumannii JMI:2346): 0.5 µg/mL (≈ 0.638 µM)
14 | C[C@@H]1S[C@@H]2[C@H](NC(=O)/C(=N\OC(C)(C)C(=O)[O-])c3csc(N)n3)C(=O)N2C(C(=O)[O-])=C1C[N+]12CCC(CNC(=O)c3cc(=O)c(O)c[nH]3)(CC1)CC2.[Na+] [Compound I-140] | ≤ 0.031 µg/mL | 0.5 µg/mL | 4 µg/mL |  | 
15 | C[C@@H]1S[C@@H]2[C@H](NC(=O)/C(=N\OC(C)(C)C(=O)[O-])c3csc(N)n3)C(=O)N2C(C(=O)[O-])=C1C[N+]12CCC(CNC(=O)C(=O)c3ccc(O)c(O)c3)(CC1)CC2.[Na+] [Compound I-107] | ≤ 0.031 µg/mL | 0.5 µg/mL | 2 µg/mL | 4 µg/mL | 
16 | C[C@@H]1S[C@@H]2[C@H](NC(=O)/C(=N\OC(C)(C)C(=O)[O-])c3csc(N)n3)C(=O)N2C(C(=O)[O-])=C1C[N+]12CCCC(CNC(=O)c3ccc(O)c(O)c3Cl)(CCC1)C2.[Na+] [Compound I-118] | 0.063 µg/mL | ≤ 0.031 µg/mL | 0.25 µg/mL | 0.5 µg/mL | 
17 | C[C@@H]1S[C@@H]2[C@H](NC(=O)/C(=N\OC(C)(C)C(=O)[O-])c3csc(N)n3)C(=O)N2C(C(=O)[O-])=C1C[N+]12CCC(CN3C(=O)c4cc(O)c(O)cc4C3=O)(CC1)C2.[Na+] [Compound I-116] | ≤ 0.031 µg/mL | ≤ 0.031 µg/mL | 0.25 µg/mL | 1 µg/mL | 
18 | CO/N=C(\C(=O)NCC12CC[N+](CC3=C(C(=O)O)N4C(=O)[C@@H](NC(=O)/C(=N\OC(C)(C)C(=O)[O-])c5csc(N)n5)[C@H]4S[C@H]3C)(CC1)C2)c1ccc(O)c(O)c1Cl [Compound I-104] | ≤ 0.031 µg/mL | 0.125 µg/mL (≈ 0.15 µM) | 1 µg/mL (≈ 1.2 µM) | 1 µg/mL (≈ 1.2 µM) | 
19 | C[C@@H]1S[C@@H]2[C@H](NC(=O)/C(=N\OC(C)(C)C(=O)[O-])c3csc(N)n3)C(=O)N2C(C(=O)[O-])=C1C[N+]1(C)C[C@H]2CN(C(=O)c3cc(O)c(O)c(Cl)c3)C[C@H]2C1.[Na+] (some centres unmarked) [Compound I-63] | ≤ 0.031 µg/mL | 1 µg/mL | 1 µg/mL |  | 
20 | C[C@@H]1S[C@@H]2[C@H](NC(=O)/C(=N\O[C@@H](CC(=O)[O-])C(=O)[O-])c3csc(N)n3)C(=O)N2C(C(=O)[O-])=C1C[N+]12CCC(CNC(=O)C(=O)c3cc(O)c(O)c(Cl)c3)(CC1)CC2.[Na+].[Na+] [Compound I-15] |  | 1 µg/mL | 4 µg/mL | 16 µg/mL | 
